Laboratory results reported in ChEMBL document CHEMBL4387714, “Four N-(E)-cinnamoyl (cinnamamide) derivatives of aminoalkanols with promising anticonvulsant and analgesic activity” (Bioorg Med Chem Lett, 2019).
Activity calls are given as the source filed them.

Legend:
Mus musculus [1] = test: Anticonvulsant activity in ip dosed 60-Hz corneal stimulation-induced full kindling albino CF1 mouse model of epilepsy assessed as reduction in seizure score treated 0.25 hrs prior to 60-Hz corneal stimulation; format: functional
Mus musculus [2] = test: Anticonvulsant activity in 60-Hz corneal stimulation-induced full kindling albino CF1 mouse model of epilepsy assessed as reduction in seizure score at 60 mg/kg, ip administered 0.25 hrs prior to 60-Hz corneal stimulation; format: functional, organism-based
Rattus norvegicus [3] = test: Antiallodynic activity in albino Sprague-Dawley rat model of sciatic nerve ligation-induced neuropathic pain assessed as increase in paw withdrawal threshold at 50 mg/kg, po measured after 2 hrs by Von Frey test relative to control; format: functional
Mus musculus [4] = test: Anticonvulsant activity in 60-Hz corneal stimulation-induced full kindling albino CF1 mouse model of epilepsy assessed as reduction in seizure score at 86 mg/kg, ip administered 0.25 hrs prior to 60-Hz corneal stimulation; format: functional, organism-based
Mus musculus [5] = test: Neuroprotective activity against controlled cortical impact-induced C57Bl/6 acute mouse model of traumatic brain injury assessed as lesion volume at 43 mg/kg, ip administered twice daily for 3 days starting from 0.5 hrs post controlled cortical impact challenge measured post-last dose by naurotrace 435/455 staining-based fluorescent microscopy (reference value: 11.9 +/- 0.7 mm3); format: functional
Rattus norvegicus [6] = test: Antiallodynic activity in albino Sprague-Dawley rat model of sciatic nerve ligation-induced neuropathic pain assessed as increase in paw withdrawal threshold at 50 mg/kg, po measured after 1 hr by Von Frey test relative to control; format: functional
Mus musculus [7] = test: Anticonvulsant activity in albino CF1 mouse model of metrazol-induced seizures assessed as metrazol dose causing first twitch at 150 mg/kg, ip administered 0.25 hrs prior to MTZ challenge (reference value: 27.9 +/- 1.2 mg/kg); format: functional
Rattus norvegicus [8] = test: Antiallodynic activity in albino Sprague-Dawley rat model of sciatic nerve ligation-induced neuropathic pain assessed as increase in paw withdrawal threshold at 50 mg/kg, po measured after 6 hrs by Von Frey test relative to control; format: functional
Rattus norvegicus [9] = test: Antiallodynic activity in albino Sprague-Dawley rat model of sciatic nerve ligation-induced neuropathic pain assessed as time required to show maximum increase in paw withdrawal threshold at 50 mg/kg, po Von Frey test; format: functional
Brain [10] = test: (§1) In vitro anticonvulsant activity in kainic acid-induced albino Sprague Dawley rat brain assessed as blockade of ACSF-stimulated spontaneous electrographic seizure-like activity in medial entorhinal cortex hippocampal brain slices by measuring burst duration at 100 uM measured after 20 mins relative to control; format: functional
Mus musculus [11] = test: Anticonvulsant activity in albino CF1 mouse assessed as time to clonus at 150 mg/kg, ip administered 0.25 hrs prior to MTZ challenge (reference value: 29 +/- 1.5 s); format: functional
[12] = Toxicity in albino CF1 mouse assessed as body weight at 150 mg/kg, ip measured at 0.25 hrs (reference value: 26.4 +/- 0.4 g); format: organism-based; conditions: in vivo
Mus musculus [13] = test: Anticonvulsant activity in albino CF1 mouse model of metrazol-induced seizures assessed as metrazol dose causing first twitch at 43 mg/kg, ip administered 0.25 hrs prior to MTZ challenge (reference value: 27.9 +/- 1.2 mg/kg); format: functional
Mus musculus [14] = test: Anticonvulsant activity in 60-Hz corneal stimulation-induced full kindling albino CF1 mouse model of epilepsy assessed as reduction in seizure score at 20 mg/kg, ip administered 0.25 hrs prior to 60-Hz corneal stimulation; format: functional, organism-based
Mus musculus [15] = test: Anticonvulsant activity in albino CF1 mouse model of metrazol-induced seizures assessed as time to twitch at 43 mg/kg, ip administered 0.25 hrs prior to MTZ challenge (reference value: 26.1 +/- 1.2 s); format: functional
Mus musculus [16] = test: Anticonvulsant activity in albino CF1 mouse model of metrazol-induced seizures assessed as time to twitch at 150 mg/kg, ip administered 0.25 hrs prior to MTZ challenge (reference value: 26.1 +/- 1.2 s); format: functional
Mus musculus [17] = test: Anticonvulsant activity in albino CF1 mouse assessed as metrazol dose causing first clonus at 43 mg/kg, ip administered 0.25 hrs prior to MTZ challenge (reference value: 31.1 +/- 1.4 mg/kg); format: functional
Brain [18] = test: as §1, with “rate” for “duration”; format: functional
Mus musculus [19] = test: Analgesic activity in formalin-induced albino CF1 mouse model of hyperalgesia assessed as time spent in paw licking during inflammatory phase at 43 mg/kg, ip administered 0.25 hrs prior to formalin challenge measured first 2 mins of five minutes test for 10 to 40 mins by formalin test relative to control; format: functional
Mus musculus [20] = test: Anticonvulsant activity in albino CF1 mouse assessed as time to clonus at 43 mg/kg, ip administered 0.25 hrs prior to MTZ challenge (reference value: 29 +/- 1.5 s); format: functional
[21] = Toxicity in albino CF1 mouse assessed as body weight at 43 mg/kg, ip measured at 0.25 hrs (reference value: 26.4 +/- 0.4 g); format: organism-based; conditions: in vivo
Mus musculus [22] = test: Anticonvulsant activity in albino CF1 mouse assessed as metrazol dose causing first clonus at 150 mg/kg, ip administered 0.25 hrs prior to MTZ challenge (reference value: 31.1 +/- 1.4 mg/kg); format: functional
Mus musculus [23] = test: Analgesic activity in formalin-induced albino CF1 mouse model of hyperalgesia assessed as time spent in paw licking during acute phase at 43 mg/kg, ip administered 0.25 hrs prior to formalin challenge measured first 2 mins of five minutes test for 10 mins by formalin test relative to control; format: functional
Rattus norvegicus [24] = test: Antiallodynic activity in albino Sprague-Dawley rat model of sciatic nerve ligation-induced neuropathic pain assessed as increase in paw withdrawal threshold at 50 mg/kg, po measured after 4 hrs by Von Frey test relative to control; format: functional
Mus musculus [25] = test: Analgesic activity in formalin-induced albino CF1 mouse model of hyperalgesia assessed as time spent in paw licking during acute phase at 186 mg/kg, ip administered 0.25 hrs prior to formalin challenge measured first 2 mins of five minutes test for 10 mins by formalin test relative to control; format: functional
Mus musculus [26] = test: Analgesic activity in formalin-induced albino CF1 mouse model of hyperalgesia assessed as time spent in paw licking during inflammatory phase at 186 mg/kg, ip administered 0.25 hrs prior to formalin challenge measured first 2 mins of five minutes test for 10 mins by formalin test relative to control; format: functional

For `Cc1ccccc1/C=C/C(=O)N[C@@H](C)CO`, which ED50 (Mus musculus [1]) is on record?
The ED50 was 36.8 mg/kg.

What about the Activity (Mus musculus [2]) of the same molecule?
The Activity was “Active”.

And the Activity (Rattus norvegicus [3])?
The Activity was 254%.

And the Activity (Mus musculus [4])?
Its Activity is “Active”.

And the Activity (Mus musculus [5])?
Its Activity is 11.09 mm3.

And the Activity (Rattus norvegicus [6])?
Its Activity is 233%.

What about the Activity (Mus musculus [7]) of the same molecule?
The Activity was 93.5 mg/kg.

And the Activity (Rattus norvegicus [8])?
Its Activity is 237%.

What about the Time (Rattus norvegicus [9]) of the same molecule?
Its Time is 2 h.

What about the Activity (Brain [10]) of the same molecule?
Its Activity is 82%.

What about the Time (Mus musculus [11]) of the same molecule?
The Time was 90 s.

And the Activity [12]?
The Activity was 26.5 g.

What about the Activity (Mus musculus [13]) of the same molecule?
The Activity was 53.4 mg/kg.

What about the Activity (Mus musculus [14]) of the same molecule?
Its Activity is “inactive”.

What about the Time (Mus musculus [15]) of the same molecule?
The Time was 48.2 s.

What about the Time (Mus musculus [16]) of the same molecule?
The Time was 87.3 s.

What about the Activity (Mus musculus [17]) of the same molecule?
Its Activity is 74.6 mg/kg.

And the Activity (Brain [18])?
The Activity was 106%.

What about the Activity (Mus musculus [19]) of the same molecule?
Its Activity is 84.29%.

What about the Time (Mus musculus [20]) of the same molecule?
The Time was 67.2 s.

What about the Activity [21] of the same molecule?
Its Activity is 25.6 g.

What about the Activity (Mus musculus [22]) of the same molecule?
Its Activity is 96.3 mg/kg.

What about the Activity (Mus musculus [23]) of the same molecule?
Its Activity is 34.23%.

And the Activity (Rattus norvegicus [24])?
Its Activity is 249%.

What does the source list for `O=C(/C=C/c1ccc(Cl)cc1)N[C@H]1CC[C@H](O)CC1`?
Activity (Mus musculus [25]): 21.89%; Activity (Mus musculus [26]): 0%
